Key:
Test in all cases: radiometric filter-binding kinase assay, Kinase HotSpot
Conditions in all cases: compound 0.5 µM; ATP 10 µM
ADRBK1 (human) = ADRBK1 (human) (UniProt P25098)
AURKB (human) = AURKB (human) (UniProt Q96GD4)
CAMK2A (human) = CAMK2A (human) (UniProt Q9UQM7)
CDK2 CCNE1 (human) = CDK2 CCNE1 (human) (UniProt P24941+P24864)
CHUK (human) = CHUK (human) (UniProt O15111)
CLK1 (human) = CLK1 (human) (UniProt P49759)
CLK4 (human) = CLK4 (human) (UniProt Q9HAZ1)
EPHA7 (human) = EPHA7 (human) (UniProt Q15375)
EPHB3 (human) = EPHB3 (human) (UniProt P54753)
EPHB4 (human) = EPHB4 (human) (UniProt P54760)
EPHB4 (human), sequence (P54760 whole entry, looked up): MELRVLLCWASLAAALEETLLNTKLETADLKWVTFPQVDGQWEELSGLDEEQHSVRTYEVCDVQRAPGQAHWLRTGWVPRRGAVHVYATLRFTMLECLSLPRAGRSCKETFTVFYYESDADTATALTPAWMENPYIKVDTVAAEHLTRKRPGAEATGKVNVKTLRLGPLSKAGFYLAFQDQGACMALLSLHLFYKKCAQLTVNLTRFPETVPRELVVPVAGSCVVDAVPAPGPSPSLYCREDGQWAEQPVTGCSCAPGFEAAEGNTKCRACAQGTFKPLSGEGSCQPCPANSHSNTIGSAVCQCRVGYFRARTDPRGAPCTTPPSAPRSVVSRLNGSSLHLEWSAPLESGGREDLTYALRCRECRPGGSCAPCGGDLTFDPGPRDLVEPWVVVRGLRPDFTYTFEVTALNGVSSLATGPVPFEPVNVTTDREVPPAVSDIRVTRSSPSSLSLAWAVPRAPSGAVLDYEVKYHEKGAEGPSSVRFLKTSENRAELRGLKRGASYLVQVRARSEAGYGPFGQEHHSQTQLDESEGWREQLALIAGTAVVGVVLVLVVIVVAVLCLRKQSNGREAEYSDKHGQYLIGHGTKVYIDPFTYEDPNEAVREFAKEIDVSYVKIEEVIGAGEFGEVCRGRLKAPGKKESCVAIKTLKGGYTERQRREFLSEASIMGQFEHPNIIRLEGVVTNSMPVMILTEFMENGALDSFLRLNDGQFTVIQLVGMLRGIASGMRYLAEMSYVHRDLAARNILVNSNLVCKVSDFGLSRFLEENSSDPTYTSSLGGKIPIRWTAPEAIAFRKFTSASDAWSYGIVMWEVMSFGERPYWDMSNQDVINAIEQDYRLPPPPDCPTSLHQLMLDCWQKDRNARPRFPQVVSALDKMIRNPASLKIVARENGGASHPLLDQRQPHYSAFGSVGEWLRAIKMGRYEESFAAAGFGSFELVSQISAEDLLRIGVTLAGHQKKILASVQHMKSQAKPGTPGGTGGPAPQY

ERBB2 (human) = ERBB2 (human) (UniProt P04626)
IGF1R (human) = IGF1R (human) (UniProt P08069)
IRAK4 (human) = IRAK4 (human) (UniProt Q9NWZ3)
KDR (human) = KDR (human) (UniProt P35968)
MAP3K10 (human) = MAP3K10 (human) (UniProt Q02779)
MAP3K7 TAB1 (human) = MAP3K7 TAB1 (human) (UniProt O43318+Q15750)
MAP3K8 (human) = MAP3K8 (human) (UniProt P41279)
MAP4K5 (human) = MAP4K5 (human) (UniProt Q9Y4K4)
MAPK10 (human) = MAPK10 (human) (UniProt P53779)
MAPKAPK2 (human) = MAPKAPK2 (human) (UniProt P49137)
MAPKAPK3 (human) = MAPKAPK3 (human) (UniProt Q16644)
MET (human) = MET (human) (UniProt P08581)
NTRK1 (human) = NTRK1 (human) (UniProt P04629)
PASK (human) = PASK (human) (UniProt Q96RG2)
PIM1 (human) = PIM1 (human) (UniProt P11309)
PIM1 (human), sequence (P11309 whole entry, looked up): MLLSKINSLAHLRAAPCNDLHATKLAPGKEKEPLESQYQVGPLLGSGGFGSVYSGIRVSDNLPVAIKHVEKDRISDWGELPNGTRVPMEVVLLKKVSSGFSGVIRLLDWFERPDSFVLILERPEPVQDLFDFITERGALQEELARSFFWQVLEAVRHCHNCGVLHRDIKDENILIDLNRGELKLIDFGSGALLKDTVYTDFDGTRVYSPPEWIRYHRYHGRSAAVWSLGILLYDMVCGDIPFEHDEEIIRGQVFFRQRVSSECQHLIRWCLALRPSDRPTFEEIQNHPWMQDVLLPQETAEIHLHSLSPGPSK

PRKCB2 (human) = PRKCB2 (human) (UniProt P05771)
PRKCE (human) = PRKCE (human) (UniProt Q02156)
PRKCG (human) = PRKCG (human) (UniProt P05129)
[1] = system: PRKCQ (human), Q04759 [P330L]
PRKD3 (human) = PRKD3 (human) (UniProt O94806)
PTK2 (human) = PTK2 (human) (UniProt Q05397)
PTK2 (human), sequence (Q05397 whole entry, looked up): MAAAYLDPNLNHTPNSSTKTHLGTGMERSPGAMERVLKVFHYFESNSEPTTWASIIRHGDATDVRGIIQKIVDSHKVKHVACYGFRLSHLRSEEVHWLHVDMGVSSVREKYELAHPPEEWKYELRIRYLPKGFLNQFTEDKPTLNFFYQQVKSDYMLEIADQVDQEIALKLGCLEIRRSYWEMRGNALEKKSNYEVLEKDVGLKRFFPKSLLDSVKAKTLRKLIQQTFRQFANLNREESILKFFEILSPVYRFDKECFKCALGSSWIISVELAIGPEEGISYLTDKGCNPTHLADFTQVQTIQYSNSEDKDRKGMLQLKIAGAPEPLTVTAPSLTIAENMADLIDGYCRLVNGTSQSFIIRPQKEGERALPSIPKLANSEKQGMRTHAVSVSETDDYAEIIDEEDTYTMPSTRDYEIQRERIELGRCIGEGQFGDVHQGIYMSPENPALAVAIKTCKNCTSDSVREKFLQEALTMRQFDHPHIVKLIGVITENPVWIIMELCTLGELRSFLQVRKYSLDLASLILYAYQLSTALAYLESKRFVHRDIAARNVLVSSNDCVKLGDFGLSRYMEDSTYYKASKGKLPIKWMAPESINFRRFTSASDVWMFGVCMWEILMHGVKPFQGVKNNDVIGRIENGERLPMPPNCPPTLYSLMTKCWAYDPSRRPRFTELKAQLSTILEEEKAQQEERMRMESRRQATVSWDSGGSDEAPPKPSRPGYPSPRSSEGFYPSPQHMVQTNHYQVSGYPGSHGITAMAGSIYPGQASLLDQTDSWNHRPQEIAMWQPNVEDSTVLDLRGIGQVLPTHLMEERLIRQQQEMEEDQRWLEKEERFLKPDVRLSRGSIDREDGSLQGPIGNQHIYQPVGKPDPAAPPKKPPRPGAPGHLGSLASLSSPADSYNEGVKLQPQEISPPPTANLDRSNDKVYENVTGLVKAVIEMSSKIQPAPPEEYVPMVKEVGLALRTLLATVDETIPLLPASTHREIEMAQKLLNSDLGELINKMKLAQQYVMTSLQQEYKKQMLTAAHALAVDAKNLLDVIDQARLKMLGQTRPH

PTK6 (human) = PTK6 (human) (UniProt Q13882)
RET (human) = RET (human) (UniProt P07949)
RET (human), sequence (P07949 whole entry, looked up): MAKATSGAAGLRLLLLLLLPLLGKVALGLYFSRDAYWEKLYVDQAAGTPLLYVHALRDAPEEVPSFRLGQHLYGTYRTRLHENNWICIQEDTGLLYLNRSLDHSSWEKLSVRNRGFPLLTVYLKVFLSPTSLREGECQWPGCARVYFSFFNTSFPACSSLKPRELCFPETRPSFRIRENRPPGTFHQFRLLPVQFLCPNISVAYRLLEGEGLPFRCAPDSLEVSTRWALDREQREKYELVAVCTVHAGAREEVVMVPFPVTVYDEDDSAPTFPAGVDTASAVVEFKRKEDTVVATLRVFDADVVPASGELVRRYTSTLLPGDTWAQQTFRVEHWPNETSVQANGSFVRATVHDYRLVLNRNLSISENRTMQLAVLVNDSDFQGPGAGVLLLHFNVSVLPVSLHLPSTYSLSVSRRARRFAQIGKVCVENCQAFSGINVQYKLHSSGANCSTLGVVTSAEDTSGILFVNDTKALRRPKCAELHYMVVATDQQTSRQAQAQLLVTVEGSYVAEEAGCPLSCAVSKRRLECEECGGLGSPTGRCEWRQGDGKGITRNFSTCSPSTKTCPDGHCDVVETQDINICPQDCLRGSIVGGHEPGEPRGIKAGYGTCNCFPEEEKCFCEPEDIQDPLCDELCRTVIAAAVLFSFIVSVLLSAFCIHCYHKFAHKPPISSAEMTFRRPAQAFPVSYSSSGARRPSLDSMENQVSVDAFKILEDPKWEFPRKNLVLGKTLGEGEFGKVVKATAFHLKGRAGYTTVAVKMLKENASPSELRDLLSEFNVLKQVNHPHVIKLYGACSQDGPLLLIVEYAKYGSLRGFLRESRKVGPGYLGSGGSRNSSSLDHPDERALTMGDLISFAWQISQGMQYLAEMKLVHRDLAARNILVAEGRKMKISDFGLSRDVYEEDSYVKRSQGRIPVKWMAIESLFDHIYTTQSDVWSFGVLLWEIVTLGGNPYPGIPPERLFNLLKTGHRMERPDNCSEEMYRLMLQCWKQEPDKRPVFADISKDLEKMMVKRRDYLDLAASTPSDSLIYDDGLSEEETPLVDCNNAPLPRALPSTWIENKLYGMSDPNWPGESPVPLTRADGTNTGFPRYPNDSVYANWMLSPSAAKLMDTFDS

RPS6KA1 KD1 KD2 (human) = RPS6KA1 KD1 KD2 (human) (UniProt Q15418)
RPS6KA4 KD2 (human) = RPS6KA4 KD2 (human) (UniProt O75676)
RPS6KA5 KD2 (human) = RPS6KA5 KD2 (human) (UniProt O75582)
RPS6KA6 KD1 KD2 (human) = RPS6KA6 KD1 KD2 (human) (UniProt Q9UK32)
SRPK1 (human) = SRPK1 (human) (UniProt Q96SB4)
SRPK1 (human), sequence (Q96SB4 whole entry, looked up): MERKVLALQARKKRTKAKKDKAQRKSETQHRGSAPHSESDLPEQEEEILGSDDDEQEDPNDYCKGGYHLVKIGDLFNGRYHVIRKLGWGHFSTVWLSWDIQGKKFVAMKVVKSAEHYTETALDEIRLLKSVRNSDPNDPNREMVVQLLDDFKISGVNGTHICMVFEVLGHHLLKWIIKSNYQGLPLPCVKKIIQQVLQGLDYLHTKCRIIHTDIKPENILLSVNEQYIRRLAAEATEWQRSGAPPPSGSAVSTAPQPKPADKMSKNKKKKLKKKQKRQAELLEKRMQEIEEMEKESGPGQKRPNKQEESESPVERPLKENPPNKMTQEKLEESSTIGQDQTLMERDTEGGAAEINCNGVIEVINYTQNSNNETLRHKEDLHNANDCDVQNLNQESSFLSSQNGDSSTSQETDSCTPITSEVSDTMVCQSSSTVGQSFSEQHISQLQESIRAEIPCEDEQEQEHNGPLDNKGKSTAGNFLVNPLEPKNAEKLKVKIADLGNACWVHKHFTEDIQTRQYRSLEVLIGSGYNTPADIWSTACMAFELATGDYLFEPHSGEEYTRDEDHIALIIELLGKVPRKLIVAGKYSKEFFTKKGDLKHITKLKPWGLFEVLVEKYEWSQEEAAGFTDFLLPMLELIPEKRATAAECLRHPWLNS

STK25 (human) = STK25 (human) (UniProt O00506)
TAOK1 (human) = TAOK1 (human) (UniProt Q7L7X3)
ULK1 (human) = ULK1 (human) (UniProt O75385)
YES1 (human) = YES1 (human) (UniProt P07947)
YES1 (human), sequence (P07947 whole entry, looked up): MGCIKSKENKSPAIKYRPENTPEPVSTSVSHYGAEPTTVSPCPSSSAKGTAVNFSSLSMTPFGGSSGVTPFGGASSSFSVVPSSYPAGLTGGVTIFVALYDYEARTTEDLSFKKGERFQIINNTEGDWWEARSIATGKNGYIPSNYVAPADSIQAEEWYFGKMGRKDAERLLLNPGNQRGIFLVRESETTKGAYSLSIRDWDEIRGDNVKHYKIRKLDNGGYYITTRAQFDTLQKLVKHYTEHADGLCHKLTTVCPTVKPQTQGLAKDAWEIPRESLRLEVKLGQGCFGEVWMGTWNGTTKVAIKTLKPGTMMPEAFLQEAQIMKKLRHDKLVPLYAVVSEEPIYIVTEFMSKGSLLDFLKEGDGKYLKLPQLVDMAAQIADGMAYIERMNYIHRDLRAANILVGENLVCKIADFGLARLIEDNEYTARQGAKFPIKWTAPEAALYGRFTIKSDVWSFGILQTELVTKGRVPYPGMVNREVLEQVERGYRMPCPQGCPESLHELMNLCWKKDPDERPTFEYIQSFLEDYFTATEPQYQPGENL

CDK2 CCNE1 (human), sequence (P24864 whole entry, looked up, other chains not shown): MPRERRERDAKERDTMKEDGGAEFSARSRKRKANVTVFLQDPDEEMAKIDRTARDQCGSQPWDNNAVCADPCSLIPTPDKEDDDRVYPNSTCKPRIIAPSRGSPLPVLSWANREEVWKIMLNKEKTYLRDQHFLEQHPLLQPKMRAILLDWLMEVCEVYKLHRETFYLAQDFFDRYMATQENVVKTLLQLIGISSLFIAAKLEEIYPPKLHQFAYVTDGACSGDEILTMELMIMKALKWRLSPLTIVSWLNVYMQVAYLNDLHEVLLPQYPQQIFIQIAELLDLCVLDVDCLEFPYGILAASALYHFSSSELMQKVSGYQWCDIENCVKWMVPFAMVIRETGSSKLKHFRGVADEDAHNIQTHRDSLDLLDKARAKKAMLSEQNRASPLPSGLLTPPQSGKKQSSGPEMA

Compound `Cc1cncc2cccc(S(=O)(=O)N3CCCN(C(=O)CN)C[C@H]3C)c12` has a residual activity (ADRBK1 (human)) of 101%, a residual activity (AURKB (human)) of 34.9% and a residual activity (CAMK2A (human)) of 93.2%. It also gave a residual activity (CDK2 CCNE1 (human)) of 92.3%, a residual activity (CHUK (human)) of 105% and a residual activity (CLK1 (human)) of 104%. The residual activity (CLK4 (human)) was 105%, the residual activity (EPHA7 (human)) was 90.7% and the residual activity (EPHB3 (human)) was 99.6%. The residual activity (EPHB4 (human)) was 85.1%, the residual activity (ERBB2 (human)) was 99.7% and the residual activity (IGF1R (human)) was 110%. For the same compound, the residual activity (IRAK4 (human)) was 109%, the residual activity (KDR (human)) was 99% and the residual activity (MAP3K10 (human)) was 105%. It also gave a residual activity (MAP3K7 TAB1 (human)) of 94.9%, a residual activity (MAP3K8 (human)) of 99.9% and a residual activity (MAP4K5 (human)) of 103%. The residual activity (MAPK10 (human)) was 103%, the residual activity (MAPKAPK2 (human)) was 103% and the residual activity (MAPKAPK3 (human)) was 98.8%. For the same compound, the residual activity (MET (human)) was 104%, the residual activity (NTRK1 (human)) was 100% and the residual activity (PASK (human)) was 105%. For the same compound, the residual activity (PIM1 (human)) was 105%, the residual activity (PRKCB2 (human)) was 91.3% and the residual activity (PRKCE (human)) was 52.4%. For the same compound, the residual activity (PRKCG (human)) was 101%, the residual activity [1] was 105% and the residual activity (PRKD3 (human)) was 85.4%. For the same compound, the residual activity (PTK2 (human)) was 78%, the residual activity (PTK6 (human)) was 87.8% and the residual activity (RET (human)) was 94.4%. It also gave a residual activity (RPS6KA1 KD1 KD2 (human)) of 90.4%, a residual activity (RPS6KA4 KD2 (human)) of 82.3% and a residual activity (RPS6KA5 KD2 (human)) of 100%. The residual activity (RPS6KA6 KD1 KD2 (human)) was 105%, the residual activity (SRPK1 (human)) was 103% and the residual activity (STK25 (human)) was 119%. It also gave a residual activity (TAOK1 (human)) of 84.2%, a residual activity (ULK1 (human)) of 51.8% and a residual activity (YES1 (human)) of 92%.

`O=C1Nc2ccc(Br)cc2/C1=C\c1cc2c([nH]1)CCCC2` gave a residual activity (ADRBK1 (human)) of 105%, a residual activity (AURKB (human)) of 56.7% and a residual activity (CAMK2A (human)) of 93.3%. It also gave a residual activity (CDK2 CCNE1 (human)) of 96%, a residual activity (CHUK (human)) of 99.1% and a residual activity (CLK1 (human)) of 97.2%. It also gave a residual activity (CLK4 (human)) of 84.5%, a residual activity (EPHA7 (human)) of 85.3% and a residual activity (EPHB3 (human)) of 99.7%. For the same compound, the residual activity (EPHB4 (human)) was 88.6%, the residual activity (ERBB2 (human)) was 115% and the residual activity (IGF1R (human)) was 74.3%. It also gave a residual activity (IRAK4 (human)) of 67.2%, a residual activity (KDR (human)) of 70.9% and a residual activity (MAP3K10 (human)) of 99.8%. The residual activity (MAP3K7 TAB1 (human)) was 60.9%, the residual activity (MAP3K8 (human)) was 105% and the residual activity (MAP4K5 (human)) was 17.7%. It also gave a residual activity (MAPK10 (human)) of 98.7%, a residual activity (MAPKAPK2 (human)) of 97.5% and a residual activity (MAPKAPK3 (human)) of 95.1%. The residual activity (MET (human)) was 81.6%, the residual activity (NTRK1 (human)) was 51.8% and the residual activity (PASK (human)) was 98.9%. The residual activity (PIM1 (human)) was 101%, the residual activity (PRKCB2 (human)) was 85.5% and the residual activity (PRKCE (human)) was 99.1%. The residual activity (PRKCG (human)) was 100%, the residual activity [1] was 98.4% and the residual activity (PRKD3 (human)) was 90.3%. The residual activity (PTK2 (human)) was 81.9%, the residual activity (PTK6 (human)) was 82.3% and the residual activity (RET (human)) was 42.9%. The residual activity (RPS6KA1 KD1 KD2 (human)) was 70.4%, the residual activity (RPS6KA4 KD2 (human)) was 94.2% and the residual activity (RPS6KA5 KD2 (human)) was 90.3%. The residual activity (RPS6KA6 KD1 KD2 (human)) was 78.6%, the residual activity (SRPK1 (human)) was 98.3% and the residual activity (STK25 (human)) was 102%. The residual activity (TAOK1 (human)) was 92.3%, the residual activity (ULK1 (human)) was 69.4% and the residual activity (YES1 (human)) was 67.2%.

From the kinase profiling compilation of Christmann-Franck et al. (2016)
